Measurements published in article PMC9953224, “Pharmacokinetic Evaluation of New Drugs Using a Multi-Labelling Approach and PET Imaging: Application to a Drug Candidate with Potential Application in Neuromuscular Disorders” (Biomedicines, 2023).
“Also recorded” adds a separate entry of the source. Where two headings read alike, the source gives them in different places.

Key:
FKBP12 = target: T1, FKBP12 (Homo sapiens, UniProt P62942); assay: Competitive ligand binding assay (FKBP/FRB NanoBiT luminescence protein complementation) in HEK293 cells; type: cell-based
T1 construct: host or cells: HEK293
T1 sequence (P62942 whole entry): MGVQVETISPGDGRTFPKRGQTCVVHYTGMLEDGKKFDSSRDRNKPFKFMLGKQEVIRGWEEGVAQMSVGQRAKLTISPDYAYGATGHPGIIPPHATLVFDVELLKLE
Procedure: Briefly, HEK293 (ATCC) cells were transfected with FKBP/FRB NanoBiT Control Pair (Promega, Madison, WI, USA) and kinetic measurements were performed 24 h after transfection with Nano-Glo Live Cell Reagent (Promega), as described by the manufacturer. A total of 30 nM rapamycin (Sigma-Aldrich, Madrid, Spain) and AHK2 (1 μM–10 mM) was sequentially added and each effect was recorded for 10 min. Specific activity was normalized to vehicle, and IC50 was calculated using GraphPad Prism by fitting the data to a four-parameter logistic curve.

FKBP12/RyR interaction = target: T2, FKBP12/RyR interaction (Homo sapiens, UniProt P62942); assay: In situ proximity ligation assay (PLA) in human myotubes under nitro-oxidative stress; type: cell-based; settings: human myotubes challenged with peroxynitrite donor SIN1 (5 mM, 30 min)
T2 construct: endogenous in cells; host or cells: immortalized human myoblasts differentiated into myotubes
Procedure: In situ PLA was used for evaluation of FKBP12/RyR stability in human myotubes under nitro-oxidative stress, as previously described. Briefly, immortalized human myoblasts (Myology Institute, Paris, France) were differentiated into myotubes and nitro-oxidative stress was induced by addition of the peroxynitrite donor 3-morpholinosydnonimine (SIN1, 5 mM, SCBT, Heidelberg, Germany) for 30 min. Myotubes were fixed with 4% paraformaldehyde (Aname, Madrid, Spain) and incubated overnight with the following primary antibodies: anti-RyR mouse mAb (1:200, Thermo Scientific, Waltham, MA, USA), and anti-FKBP12 rabbit pAb (1:100, Novus Biologicals, Centennial, CO, USA). The Duolink in situ PLA Orange assay kit was used with corresponding conjugated secondary antibodies (Sigma). Samples were counterstained with FITC-conjugated Myosin Heavy Chain-CFS mAb (MyHC, 1:50, R&D, Minneapolis, MN, USA) and mounted with ProLong Gold antifade reagent (Life Technologies, Eugene, OR, USA). Image quantification was performed with ImageJ (NIH). For each image, the total number of spots was normalized to the MyHC area. At least 3 images per condition were analysed with an average of 8–9 myotubes per image. Statistical significance was determined using One-Way ANOVA followed by Dunett’s multiple comparisons test. p-values < 0.05 were considered statistically significant.

[1] = Pharmacokinetics from metabolite-corrected arterial plasma TACs after intravenous administration; type: in vivo, Sprague Dawley Rats; settings: for MRT / Vd / half-life: Sprague Dawley, rat, arterial plasma; for MRT: read-out: MRT mean residence time (converted); for Vd / half-life: iv; for half-life: read-out: t1/2 terminal half-life
Procedure: Anaesthesia was induced with 5% isoflurane (IsoFlo®, Abbott Laboratories, Abbott Park, IL, USA) and maintained by 2% of isoflurane in 100% O2. During the experiment, rats were kept normothermic using a heating blanket (Homeothermic Blanket Control Unit; Bruker). The rat was positioned in supine position on an operating table and the two distal hind limbs were fixed forming an approximately 30° angle with the horizontal plane. The surgical region was scrubbed using Betadine, starting in the centre, and making a circular sweep outward. A skin incision was made in the femoral region. Soft tissue was dissected to expose the femoral neurovascular bundle, consisting of femoral vein, artery, and nerve. Fine tip forceps were placed between the artery, vein and nerve and were slowly opened to separate the vessels, exposing an approximately 1 cm length section of artery/vein. The vena profunda femoris was sutured to avoid retrograde bleeding via this vessel, and the sapheno-femoral junction was cauterized. A few millimetres from venatomy, a vascular clip was inserted in the direction of the catheter (to control the flow) and a suture was applied in the opposite direction (to avoid retrograde bleeding). The same operation was carried out both on the femoral vein and femoral artery. An appropriate syringe filled with 50 U/mL Heparin/physiologic saline solution was fixed at the terminus of the catheters and these were filled with heparinized saline solution. On the upper half of the vessel circumference, at a 45° angle, an incision was made and the catheter (fine bore polythene tubing: ID 0.58 mm, OD 0.98 mm) was inserted through the venotomy and advanced to the vascular clip. The vascular clip was then removed, and the catheter advanced distally towards the level of the inguinal ligament. The catheter was finally secured to the femoral vein/artery proximally and distally with 2 single knots using 4–0 braided silk suture. The catheters were connected to an in-house developed system composed by a peristaltic pump and gamma-radiation coincidence detector (Bioscan, B-FC-4100). The femoral artery catheter, the gamma detector, the peristaltic pump, and the femoral vein catheter were thus connected in series, to enable the extracorporeal circulation of blood (flow 150 μL/s from femoral artery to femoral vein) and continuous measurement of radioactivity in the blood (Figure 1).
The labelled compounds were administrated two different ways: (i) intravenous bolus infusion (ca. 37 MBq in 300 μL of saline solution was injected through the femoral vein catheter) and (ii) oral bolus administration. For oral administration, animals were fasted for 5 h. The radioactive dose (ca. 74 MBq in 300 μL of saline solution) was administered using flexible 20-gauge disposable flexible PTFE feeding needles (Fine Science Tools, F.S.T.) and a small animal Laryngoscope (Penn-Century, Model LS-2) for the correct visualization of the oesophagus. The study was conducted under no carrier added (NCA, dose adjusted to 1 μg/Kg) and carrier added (CA, dose adjusted to 5 mg/Kg) conditions. In all cases, data were imported in real time to an excel sheet using PLX-DAX add-on for Microsoft Excel (measured in volts per second).
Arterial blood samples (1 per animal) were withdrawn (see Figure 1) from the femoral artery catheter and introduced into a capillary (Microhaematocrit capillaries 75 × 1.55, Nahita). Samples were centrifuged at 11,000× g […] for 10 min and the haematocrit was determined. A second blood sample was withdrawn and the amount of radioactivity of a fixed volume (10 µL) was measured in an automatic gamma counter (2470 Wizard, PerkinElmer) to determine Cb (concentration of radioactivity in blood) and convert data imported with PLX-DAX (Volts per seconds) into Bq/s using a previously determined calibration curve. Values were then expressed as percentage of injected dose per gram of blood (% ID/g). […]

[2] = 1 ug/kg, intravenous, 1 µg/Kg, n = 5
[3] = intravenous, both groups (1 µg/Kg and 5 mg/Kg) pooled together

- IC50 (FKBP12; 30 nM rapamycin, AHK2 1 μM–10 mM, read-out: IC50, displacement of rapamycin from FKBP12 (inhibition of FKBP12-Rapamycin-FRB interaction)): 2980 µM
- increase of FKBP12/RyR interaction (stabilization) (FKBP12/RyR interaction): 89%
- MRT [1, 2]: 8.48 min
- Vd ([1]; 1 ug/kg, intravenous, 1 µg/Kg, n = 5, read-out: Vss volume of distribution at the steady state): 1.03 ± 0.695 L
- Vd ([1]; 1 ug/kg, intravenous, 1 µg/Kg, n = 5, read-out: Vz volume of distribution based on the terminal slope): 2 ± 0.43 L
- half-life [1, 2]: 11.7 ± 3.22 min
- Vd ([1]; 5 mg/kg, intravenous, 5 mg/Kg, n = 5, read-out: Vss volume of distribution at the steady state): 1.13 ± 0.443 L
- Vd ([1]; 5 mg/kg, intravenous, 5 mg/Kg, n = 5, read-out: Vz volume of distribution based on the terminal slope): 2.34 ± 0.609 L
- half-life ([1]; 5 mg/kg, intravenous, 5 mg/Kg, n = 5): 13.6 ± 3.42 min
- Vd ([1]; both groups (1 µg/Kg and 5 mg/Kg) pooled together, read-out: Vss volume of distribution at the steady state): 1.08 ± 0.809 L
- Vd ([1]; both groups (1 µg/Kg and 5 mg/Kg) pooled together, read-out: Vz volume of distribution based on the terminal slope): 2.17 ± 1.13 L
- half-life ([1]; both groups (1 µg/Kg and 5 mg/Kg) pooled together): 12.6 ± 3.3 min
- MRT ([1]; intravenous, 5 mg/Kg, n = 5): 8.59 min
- MRT [1, 3]: 8.53 min
- AUC area under the curve ([1]; intravenous, 1 µg/Kg, n = 5): 53.99 ± 11.04 %IDxs/mL
- Cl plasma clearance ([1]; intravenous, 1 µg/Kg, n = 5): 1.91 ± 0.41 mL/s
- AUC area under the curve ([1]; intravenous, 5 mg/Kg, n = 5): 59.39 ± 19.76 %IDxs/mL
- Cl plasma clearance ([1]; intravenous, 5 mg/Kg, n = 5): 1.87 ± 0.73 mL/s
- AUC area under the curve [1, 3]: 56.69 ± 15.36 %IDxs/mL
- Cl plasma clearance [1, 3]: 1.89 ± 0.55 mL/s
- t1/2 terminal half-life [1, 3]: 12.63 ± 3.29 min
SMILES: COc1ccc(SCc2cn(CCN(C)C)nn2)cc1 [AHK2, 1-[2-(N,N-dimethylamino)ethyl]-4-[(4-methoxyphenyl)thiomethyl]-1H-1,2,3-triazole]
- induction of FKBP12/FRB dimerization (luminescence) (FKBP12; rapamycin 30 nM): did not induce FKBP12/FRB dimerization; also recorded: not able to induce FKBP12/FRB dimerization
